Values of other authors, collected in PubChem BioAssay AID1259409 (Chemical Carcinogenesis Research Information System (CCRIS), 2018).

Tested on: rodent chemically induced tumor inhibition, incidence and multiplicity
Test: CCRIS tumor inhibitor studies
Settings: Route [Inhibitor]: ORAL, Species: HAMSTER

CC1=C(/C=C/C(C)=C/C=C/C(C)=C/C(=O)Nc2ccc(O)cc2)C(C)(C)CCC1
tumour outcome (control, treated, inhibition, significance) (Carcinogen: N-NITROSOBIS(2-OXOPROPLYL)AMINE [60599-38-4], DL-ETHIONINE [67-21-0], L-METHIONINE [63-68-3], Carcinogen: N-NITROSOBIS(2-OXOPROPLYL)AMINE [60599-38-4], DL-ETHIONINE [67-21-0], L-METHIONINE [63-68-3], Dose [Inhibitor]: 0, 0.01% IN DIET FOR 55 D BEGINNING ON DAY 50, 1 WK POST LAST CARCINOGEN DOSE (STUDY DURATION: 105 D), Target Tissue: Type of Lesion: PANCREATIC DUCT, CARCINOMA, Dose [Carcinogen]: 50 MG/KG BOP ONCE ON DAY 0, THEN 20 MG/KG TWICE ON DAYS 18 AND 32, 500 MG/KG DL-ETHIONINE 1X/D FOR 4 D BEGINNING ON DAY, Dose [Carcinogen]: 50 MG/KG BOP ONCE ON DAY 0, THEN 20 MG/KG TWICE ON DAYS 18 AND 32, 500 MG/KG DL-ETHIONINE 1X/D FOR 4 D BEGINNING ON DAY, Promoter: CHOLINE-DEFICIENT DIET): 17/17 (100%), 17/17 (100%), 0%, not significant
tumour outcome (control, treated, inhibition, significance) (Carcinogen: N-NITROSOBIS(2-OXOPROPLYL)AMINE [60599-38-4], DL-ETHIONINE [67-21-0], L-METHIONINE [63-68-3], Carcinogen: N-NITROSOBIS(2-OXOPROPLYL)AMINE [60599-38-4], DL-ETHIONINE [67-21-0], L-METHIONINE [63-68-3], Dose [Inhibitor]: 0, 0.04% IN DIET FOR 55 D BEGINNING ON DAY 50, 1 WK POST LAST CARCINOGEN DOSE (STUDY DURATION: 105 D), Target Tissue: Type of Lesion: LIVER: INTRAHEPATIC CHOLANGIOCARCINOMA, Dose [Carcinogen]: 50 MG/KG BOP ONCE ON DAY 0, THEN 20 MG/KG TWICE ON DAYS 18 AND 32, 500 MG/KG DL-ETHIONINE 1X/D FOR 4 D BEGINNING ON DAY, Dose [Carcinogen]: 50 MG/KG BOP ONCE ON DAY 0, THEN 20 MG/KG TWICE ON DAYS 18 AND 32, 500 MG/KG DL-ETHIONINE 1X/D FOR 4 D BEGINNING ON DAY, Promoter: CHOLINE-DEFICIENT DIET): 7/17 (41%), 14/15 (93%), -127%, p<0.01
tumour outcome (control, treated, inhibition, significance) (Carcinogen: N-NITROSOBIS(2-OXOPROPLYL)AMINE [60599-38-4], DL-ETHIONINE [67-21-0], L-METHIONINE [63-68-3], Carcinogen: N-NITROSOBIS(2-OXOPROPLYL)AMINE [60599-38-4], DL-ETHIONINE [67-21-0], L-METHIONINE [63-68-3], Dose [Inhibitor]: 0, 0.04% IN DIET FOR 55 D BEGINNING ON DAY 50, 1 WK POST LAST CARCINOGEN DOSE (STUDY DURATION: 105 D), Target Tissue: Type of Lesion: PANCREATIC DUCT, CARCINOMA, Dose [Carcinogen]: 50 MG/KG BOP ONCE ON DAY 0, THEN 20 MG/KG TWICE ON DAYS 18 AND 32, 500 MG/KG DL-ETHIONINE 1X/D FOR 4 D BEGINNING ON DAY, Dose [Carcinogen]: 50 MG/KG BOP ONCE ON DAY 0, THEN 20 MG/KG TWICE ON DAYS 18 AND 32, 500 MG/KG DL-ETHIONINE 1X/D FOR 4 D BEGINNING ON DAY, Promoter: CHOLINE-DEFICIENT DIET): 17/17 (100%), 15/15 (100%), 0%, not significant
tumour outcome (control, treated, inhibition, significance) (Carcinogen: N-NITROSOBIS(2-OXYPROPYL)AMINE, 60599-38-4, Dose [Inhibitor]: 0.05, 0.1 OR 0.2 MILLIMOLAR/KG DIET FOR 32 WK STARTING 1 WK AFTER THE CARCINOGEN DOSE (STUDY DURATION: 33 WK), Strain/Sex: SYRIAN/FEMALE, Target Tissue: Type of Lesion: COMMON DUCT: ADENOMA, Dose [Carcinogen]: 40 MG/KG ONCE, Promoter: NONE USED): 4/10 (40%), 26/30 (87%), -118%, p<0.025
tumour outcome (control, treated, inhibition, significance) (Carcinogen: N-NITROSOBIS(2-OXYPROPYL)AMINE, 60599-38-4, Dose [Inhibitor]: 0.05, 0.1 OR 0.2 MILLIMOLAR/KG DIET FOR 32 WK STARTING 1 WK AFTER THE CARCINOGEN DOSE (STUDY DURATION: 33 WK), Strain/Sex: SYRIAN/FEMALE, Target Tissue: Type of Lesion: GALL BLADDER: ADENOMA, Dose [Carcinogen]: 40 MG/KG ONCE, Promoter: NONE USED): 6/10 (60%), 29/30 (97%), -62%, not significant
tumour outcome (control, treated, inhibition, significance) (Carcinogen: N-NITROSOBIS(2-OXYPROPYL)AMINE, 60599-38-4, Dose [Inhibitor]: 0.05, 0.1 OR 0.2 MILLIMOLAR/KG DIET FOR 32 WK STARTING 1 WK AFTER THE CARCINOGEN DOSE (STUDY DURATION: 33 WK), Strain/Sex: SYRIAN/FEMALE, Target Tissue: Type of Lesion: LIVER: ADENOMA, Dose [Carcinogen]: 40 MG/KG ONCE, Promoter: NONE USED): 6/10 (60%), 10/30 (33%), 45%, not significant
tumour outcome (control, treated, inhibition, significance) (Carcinogen: N-NITROSOBIS(2-OXYPROPYL)AMINE, 60599-38-4, Dose [Inhibitor]: 0.05, 0.1 OR 0.2 MILLIMOLAR/KG DIET FOR 32 WK STARTING 1 WK AFTER THE CARCINOGEN DOSE (STUDY DURATION: 33 WK), Strain/Sex: SYRIAN/FEMALE, Target Tissue: Type of Lesion: LUNG: ADENOMA, Dose [Carcinogen]: 40 MG/KG, ONCE, ONE WK PRIOR TO START OF AGENT TREATMENT, Promoter: NONE USED): 3/10 (30%), 18/30 (60%), -100%, not significant
tumour outcome (control, treated, inhibition, significance) (Carcinogen: N-NITROSOBIS(2-OXYPROPYL)AMINE, 60599-38-4, Dose [Inhibitor]: 0.05, 0.1 OR 0.2 MILLIMOLAR/KG DIET FOR 32 WK STARTING 1 WK AFTER THE CARCINOGEN DOSE (STUDY DURATION: 33 WK), Strain/Sex: SYRIAN/FEMALE, Target Tissue: Type of Lesion: PANCREAS: ADENOMA, Dose [Carcinogen]: 40 MG/KG ONCE, Promoter: NONE USED): 10/10 (100%), 30/30 (100%), 0%, not significant
tumour outcome (control, treated, inhibition, significance) (Carcinogen: N-NITROSOBIS(2-OXYPROPYL)AMINE, 60599-38-4, Dose [Inhibitor]: 0.05, 0.1 OR 0.2 MILLIMOLAR/KG DIET FOR 32 WK STARTING 1 WK AFTER THE CARCINOGEN DOSE (STUDY DURATION: 33 WK), Strain/Sex: SYRIAN/FEMALE, Target Tissue: Type of Lesion: PANCREAS: CARCINOMA, Dose [Carcinogen]: 40 MG/KG ONCE, Promoter: NONE USED): 4/10 (40%), 16/30 (53%), -33%, not significant
tumour outcome (control, treated, inhibition, significance) (Carcinogen: N-NITROSOBIS(2-OXYPROPYL)AMINE, 60599-38-4, Dose [Inhibitor]: 0.05, 0.1 OR 0.2 MILLIMOLAR/KG DIET FOR 32 WK STARTING 1 WK AFTER THE CARCINOGEN DOSE (STUDY DURATION: 33 WK), Strain/Sex: SYRIAN/MALE, Target Tissue: Type of Lesion: COMMON DUCT: ADENOMA, Dose [Carcinogen]: 40 MG/KG ONCE, Promoter: NONE USED): 4/12 (33%), 20/21 (95%), -188%, not significant
tumour outcome (control, treated, inhibition, significance) (Carcinogen: N-NITROSOBIS(2-OXYPROPYL)AMINE, 60599-38-4, Dose [Inhibitor]: 0.05, 0.1 OR 0.2 MILLIMOLAR/KG DIET FOR 32 WK STARTING 1 WK AFTER THE CARCINOGEN DOSE (STUDY DURATION: 33 WK), Strain/Sex: SYRIAN/MALE, Target Tissue: Type of Lesion: GALL BLADDER: ADENOMA, Dose [Carcinogen]: 40 MG/KG ONCE, Promoter: NONE USED): 3/12 (25%), 20/21 (95%), -280%, not significant
tumour outcome (control, treated, inhibition, significance) (Carcinogen: N-NITROSOBIS(2-OXYPROPYL)AMINE, 60599-38-4, Dose [Inhibitor]: 0.05, 0.1 OR 0.2 MILLIMOLAR/KG DIET FOR 32 WK STARTING 1 WK AFTER THE CARCINOGEN DOSE (STUDY DURATION: 33 WK), Strain/Sex: SYRIAN/MALE, Target Tissue: Type of Lesion: LIVER: ADENOMA, Dose [Carcinogen]: 40 MG/KG ONCE, Promoter: NONE USED): 6/12 (50%), 7/21 (33%), 34%, not significant
